Reference: ChEMBL document CHEMBL5528064, “Invention of MK-7845, a SARS-CoV-2 3CL Protease Inhibitor Employing a Novel Difluorinated Glutamine Mimic” (J Med Chem, 2024)

Experiments:
[1] = target: T1, Nuclear receptor subfamily 1 group I member 2 (Homo sapiens, UniProt O75469); test: Activation of PXR (unknown origin); type: toxicity
T1 sequence (O75469 whole entry): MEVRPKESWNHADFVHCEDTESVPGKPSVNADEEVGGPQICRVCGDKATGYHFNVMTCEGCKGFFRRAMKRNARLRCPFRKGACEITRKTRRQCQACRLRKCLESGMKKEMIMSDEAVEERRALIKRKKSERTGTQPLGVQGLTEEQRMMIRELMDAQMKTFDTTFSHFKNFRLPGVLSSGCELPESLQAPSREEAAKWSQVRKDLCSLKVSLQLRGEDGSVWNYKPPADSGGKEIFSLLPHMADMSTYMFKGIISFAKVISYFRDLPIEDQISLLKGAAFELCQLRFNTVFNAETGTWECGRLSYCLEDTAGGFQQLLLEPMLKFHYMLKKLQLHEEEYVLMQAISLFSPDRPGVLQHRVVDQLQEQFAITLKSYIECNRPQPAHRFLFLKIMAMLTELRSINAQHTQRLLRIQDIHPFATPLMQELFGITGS

[2] = target: CYP3A4 (Homo sapiens, UniProt P08684); test: Ratio of IC50 for time dependent inhibition of CYP3A4 in human liver microsomes incubated for 30 mins in presence of NADPH to IC50 for time dependent inhibition of CYP3A4 in human liver microsomes incubated for 30 mins in absence of NADPH; design: species or system Microsome; conditions: read-out: Ratio IC50
[3] = MRT in dog at 3 mg/kg, po or 1 mg/kg, iv measured upto 24 hrs by LC-MS analysis; type: ADME, organism-based, Canis lupus familiaris; conditions: in vivo
[4] = Oral bioavailability in rat at 3 mg/kg measured upto 24 hrs by LC-MS analysis; type: ADME, organism-based; conditions: in vivo
[5] = Apparent permeability in MDCK cells; type: ADME, cell-based, Canis lupus familiaris; conditions: dog
[6] = target: Replicase polyprotein 1ab (Severe acute respiratory syndrome coronavirus 2, UniProt P0DTD1); test: Inhibition of wild type recombinant SARS-CoV-2 3CLpro (1 to 306 residues) expressed in Escherichia coli (DE3) competent cells using CP488-ESATLQSGLRKAK-(CPQ2)-NH2 as substrate preincubated for 30 mins followed by substrate addition and measured after 4 hrs by FRET assay
[7] = Oral bioavailability in Wistar-Han rat at 2 mg/kg; type: ADME, organism-based; conditions: in vivo
[8] = Oral bioavailability in rat; type: ADME, organism-based; conditions: in vivo

CYP3A4, sequence (P08684 whole entry): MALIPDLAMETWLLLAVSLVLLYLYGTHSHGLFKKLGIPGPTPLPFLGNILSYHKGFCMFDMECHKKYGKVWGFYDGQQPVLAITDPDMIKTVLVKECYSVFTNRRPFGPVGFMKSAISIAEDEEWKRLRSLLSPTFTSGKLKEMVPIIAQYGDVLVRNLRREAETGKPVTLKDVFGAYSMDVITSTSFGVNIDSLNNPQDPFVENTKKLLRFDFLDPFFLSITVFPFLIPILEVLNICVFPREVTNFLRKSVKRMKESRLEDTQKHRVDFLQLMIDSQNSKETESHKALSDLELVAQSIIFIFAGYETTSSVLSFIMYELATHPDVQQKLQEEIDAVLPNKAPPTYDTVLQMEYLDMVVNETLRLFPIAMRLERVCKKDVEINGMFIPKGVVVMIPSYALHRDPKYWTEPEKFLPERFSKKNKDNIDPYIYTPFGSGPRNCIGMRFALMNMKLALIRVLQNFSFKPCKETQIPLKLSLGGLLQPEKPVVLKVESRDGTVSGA

CNC(=O)C(=O)[C@H](CCC(C)(F)F)NC(=O)[C@@H]1CC2(CCCCC2)CN1C(=O)[C@@H](NC(=O)OC)C(C)(C)C
EC50 [1]: 5800 nM
IC50 shift at 0.5 h [2]: > 1.6

COC(=O)N[C@H](C(=O)N1CC[C@@H](C(F)(F)F)C[C@H]1C(=O)N[C@@H](CCC(C)(F)F)C(=O)C(=O)NC1CC1)C(C)(C)C
MRT [3]: 8.6 h
bioavailability [4]: 40%

CNC(=O)C(=O)[C@H](CCC(C)(F)F)NC(=O)[C@@H]1C[C@H](C(F)(F)F)CCN1C(=O)[C@@H](NC(=O)OC)C(C)(C)C
MRT [3]: 3.1 h
bioavailability [4]: 63%

COC(=O)N[C@H](C(=O)N1CCC2(CC2)C[C@H]1C(=O)N[C@@H](CCC(C)(F)F)C(=O)C(=O)NC1CC1)C(C)(C)C
MRT [3]: 3.6 h
bioavailability [4]: 60%
Papp [5]: 16 ×10⁻⁶ cm/s

COC(=O)N[C@H](C(=O)N1CC2(C[C@H]1C(=O)N[C@@H](CCC(C)(F)F)C(=O)C(=O)NC1CC1)CC2(F)F)C(C)(C)C (stereo partly drawn)
MRT [3]: 3.2 h

COC(=O)N[C@H](C(=O)N1CC2(CCOCC2)C[C@H]1C(=O)N[C@@H](CCC(C)(F)F)C(=O)C(=O)NC1CC1)C(C)(C)C
IC50 [6]: 297 nM

CC(F)(F)CC[C@H](NC(=O)[C@@H]1CC2(CCCCC2)CN1C(=O)c1cc2ccccc2[nH]1)C(=O)C(=O)NC1CC1
IC50 [6]: 64 nM

COC(=O)N[C@H](C(=O)N1CC2(CCCCC2)C[C@H]1C(=O)N[C@@H](CCC(F)(F)F)C(=O)C(=O)NC1CC1)C(C)(C)C
IC50 [6]: 382 nM

CC(F)(F)CC[C@H](NC(=O)[C@@H]1[C@@H]2[C@H](CN1C(=O)[C@@H](NC(=O)NC1(CS(=O)(=O)C(C)(C)C)CCCCC1)C(C)(C)C)C2(C)C)C(=O)C(=O)NC1CC1
IC50 [6]: 129 nM

COc1cccc2[nH]c(C(=O)N[C@@H](CC(C)C)C(=O)N[C@@H](C[C@@H]3CCNC3=O)C(=O)CO)cc12 [PF-00835231]
bioavailability [7]: < 2%

COC(=O)N[C@H](C(=O)N1CC2(CCCCC2)C[C@H]1C(=O)N[C@@H](CCC(C)(F)F)C(=O)C(=O)NCc1ccncc1)C(C)(C)C
IC50 [6]: 30 nM
EC50 [1]: > 30000 nM
IC50 shift at 0.5 h [2]: ~1

CC(C)(C)CC(=O)N1CC2(CCCCC2)C[C@H]1C(=O)N[C@@H](CCC(C)(F)F)C(=O)C(=O)NC1CC1
IC50 [6]: 890 nM

CC(C)(C)NC(=O)N[C@H](C(=O)N1C[C@H]2[C@@H]([C@H]1C(=O)N[C@@H](C[C@@H]1CCNC1=O)C(=O)C(N)=O)C2(C)C)C(C)(C)C
Papp [5]: < 1.13 ×10⁻⁶ cm/s
bioavailability [8]: 0.2%

COC(=O)N[C@H](C(=O)N1CC2(CCCCC2)C[C@H]1C(=O)N[C@@H](CCC(C)(F)F)C(=O)C(=O)NC1CCCCC1)C(C)(C)C
IC50 [6]: 77 nM
EC50 [1]: 2300 nM
IC50 shift at 0.5 h [2]: > 6

CC(F)(F)CC[C@H](NC(=O)[C@@H]1CC2(CCCCC2)CN1C(=O)C(O)c1cccc(F)c1)C(=O)C(=O)NC1CC1 (stereo partly drawn)
IC50 [6]: 56 nM

COC(=O)N[C@H](C(=O)N1CC2(CCCCC2)C[C@H]1C(=O)N[C@@H](CC1CC1(F)F)C(=O)C(=O)NC1CC1)C(C)(C)C (stereo partly drawn)
IC50 [6]: 355 nM

CC(F)(F)CC[C@H](NC(=O)[C@@H]1CC2(CCCCC2)CN1C(=O)[C@@H](NC(=O)OCc1ccccc1)C1CCCCC1)C(=O)C(=O)NC1CC1
IC50 [6]: 16 nM

CCCC[C@H](NC(=O)[C@@H]1CC2(CCCCC2)CN1C(=O)[C@@H](NC(=O)OC)C(C)(C)C)C(=O)C(=O)NC1CC1
IC50 [6]: 715 nM

COC(=O)N[C@H](C(=O)N1CC2(CCCCC2)C[C@H]1C(=O)N[C@@H](CCC(C)(F)F)C(=O)C(=O)NCc1ccccc1)C(C)(C)C
EC50 [1]: 3900 nM
IC50 shift at 0.5 h [2]: > 3.1

COC(=O)N[C@H](C(=O)N1C[C@@H]2CCC[C@@H]2[C@H]1C(=O)N[C@@H](CC[C@@H](C)F)C(=O)C(=O)NC1CC1)C(C)(C)C
IC50 [6]: 11 nM

COC(=O)N[C@H](C(=O)N1CC2(CCCCC2)C[C@H]1C(=O)N[C@@H](CCC(C)(F)F)C(=O)C(N)=O)C(C)(C)C
IC50 [6]: 25 nM
EC50 [1]: > 30000 nM
IC50 shift at 0.5 h [2]: > 1

COC(=O)N[C@H](C(=O)N1CC2(CCCCC2)C[C@H]1C(=O)N[C@@H](CCC(F)F)C(=O)C(=O)NC1CC1)C(C)(C)C
IC50 [6]: 123 nM

COC(=O)N[C@H](C(=O)N1CC2(CCCCC2)C[C@H]1C(=O)N[C@@H](CCC(C)(F)F)C(=O)C(=O)NC1CC1)C(C)(C)C
IC50 [6]: 11 nM
EC50 [1]: 6800 nM
MRT [3]: 0.8 h
bioavailability [4]: 26%
IC50 shift at 0.5 h [2]: > 1.3

COC(=O)N[C@H](C(=O)N1C[C@@H]2CCC[C@@H]2[C@H]1C(=O)N[C@@H](CCC(C)(C)F)C(=O)C(=O)NC1CC1)C(C)(C)C
IC50 [6]: 26 nM

COC(=O)N[C@H](C(=O)N1C[C@@H]2CCC[C@@H]2[C@H]1C(=O)N[C@@H](CCC(C)(F)F)C(=O)C(=O)NC1CC1)C(C)(C)C
MRT [3]: 2.7 h
bioavailability [4]: 47%

COC(=O)N[C@H](C(=O)N1C[C@@H]2CCC[C@@H]2[C@H]1C(=O)N[C@@H](CC[C@H](C)F)C(=O)C(=O)NC1CC1)C(C)(C)C
IC50 [6]: 23 nM

CC(C)C[C@H](NC(=O)OCc1ccccc1)C(=O)N[C@@H](C[C@@H]1CCNC1=O)C(O)S(=O)(=O)[O-].[Na+] (stereo partly drawn)
bioavailability [8]: 3%

COC(=O)N[C@H](C(=O)N1C[C@H]2[C@@H]([C@H]1C(=O)N[C@@H](CCC(C)(F)F)C(=O)C(=O)NC1CC1)C21CCOCC1)C(C)(C)C
MRT [3]: 2.4 h
bioavailability [4]: 40%

COC(=O)N[C@H](C(=O)N1CC2(CCC(F)(F)CC2)C[C@H]1C(=O)N[C@@H](CCC(C)(F)F)C(=O)C(=O)NC1CC1)C(C)(C)C
IC50 [6]: 270 nM
